Test results: patent US12662462B2, “Salts of pyridinylmethylenepiperidine derivatives and uses thereof” (SUNSHINE LAKE PHARMA CO., LTD., priority 2020, dated 2026)
Read-outs that look alike come from different tables or passages of the source.

Assays:
[1] = Pharmacokinetic experiment in Beagle dogs; assay type: in vivo, Beagle dog; conditions: oral capsules, 5 mg/kg
Procedure: The inventors conducted a pharmacokinetic evaluation of the salt or its crystal form of the present invention in Beagle dogs.
The test sample (i.e., the salt or crystal form of the present invention, or the compound having formula (I) of the present invention) was filled into capsules for oral administration. The animals were fasted for 12 h before the administration, and they had free drinking water. Capsules containing test samples were administered orally at a dose of 5 mg/kg. After administration, intravenous blood was collected at the following time points (about 0.15 mL of blood taken): 0.25, 0.5, 1.0, 2.0, 4.0, 6.0, 8.0 and 24 h. EDTA-K2 was added as an anticoagulant in the blood collection tube in advance, the blood sample was centrifuged at 12,000 rpm for 2 minutes, the plasma was collected, and stored at −20° C. or −70° C.
After processing the plasma samples collected above (after the frozen plasma was thawed at room temperature, it was whirled for 5 minutes to mix well, then 20 μL of plasma was taken, 120 μL of acetonitrile solution containing internal standard was added, the mixture was whirled for 5 minutes to mix well, and centrifuged at 4,000 rpm for 5 minutes, then 100 μL of the supernatant was taken, 130 μL of methanol-water (V/V=1/1) was added to mix well), a standard curve with a suitable range was established according to the concentration of the test sample, and the LC-MS/MS with AB SCIEX API5500 was used, the concentration of the test sample in the plasma sample was determined in the MRM mode, and quantitative analysis was performed. Pharmacokinetic parameters were calculated according to drug concentration-time curve using a non-compartmental method by WinNonLin 6.3 software.

[2] = Hygroscopicity experiment; assay type: physicochemical; conditions: 25° C., saturated ammonium chloride solution desiccator, 24 hours
Procedure: 1) A dry stoppered glass weighing bottle (outer diameter of 50 mm, height of 15 mm) was taken the day before, and placed in a 25° C.±1° C. constant temperature desiccator (a saturated ammonium chloride solution was placed at the bottom), and the weighing bottle was weighed accurately (m1).
2) An appropriate amount of the test sample was taken, and spread flat in the above weighing bottle, the thickness of the test sample was generally about 1 mm, and the weighing bottle was weighed accurately (m2).
3) The weighing bottle was open and placed under the above constant temperature and humidity conditions with the bottle cap for 24 hours.
4) The bottle cap was covered on the weighing bottle, and weighed accurately (m3), and calculate: the percentage increase in weight %=(m3−m2)/(m2−m1)×100%

[3] = Stability experiment (high temperature, high humidity, light); assay type: physicochemical
Procedure: (§1) (1) High temperature experiment: an appropriate amount of a batch of test samples were taken into flat weighing bottles, and spread into a thin layer ≥5 mm thick. The above weighing bottles were placed in a constant temperature box at 40° C.±2° C./75%±5% RH and/or 60° C.±2° C./75%±5% RH for 30 days, the samples were taken on the 5th, 10th, and 30th days, and tested according to the key stability inspection items: the color changes of the samples were observed, the purities of the samples were checked by HPLC, and the structure of the samples were analyzed by X-ray powder diffraction.
as §1, with “(2)” for “(1)”, “humidity” for “temperature”, “placed” for “placed in a constant temperature box”, “25° C.,” for “40° C.±2° C./75%±5%”, “75%±5% or RH 90%±5%” for “and/or 60° C.±2° C./75%±5%”, “structures” for “structure”
as §1, with “(3) Light” for “(1) High temperature”, “placed and opened” for “placed”, “light” for “constant temperature”, “box (with UV)” for “box”, “the illuminance 4500±500 lx, UV light ≤0.7 w·h/m^2” for “40° C.±2° C./75%±5% RH and/or 60° C.±2° C./75%±5% RH”, “structures” for “structure”

[4] = Solubility experiment in water; assay type: physicochemical
Procedure: The solubility of the present invention was determined using an Agilent 1200 High Performance Liquid Chromatograph DAD/VWD detector with an Agilent XDB-C18 model (4.6×50 mm, 5 μm). Detection wavelength was 266 nm, flow rate was 1.0 mL/min, the column temperature was 35° C., mobile phase A: acetonitrile: 0.01 M ammonium acetate=10:90 (V:V), analysis methods: acetonitrile: mobile phase A=70:30 (V:V), running time was 10 minutes.
The test sample was taken into 37° C. organic ultrapure water to prepare a supersaturated solution. After shaking for 24 h, the mixture was filtered with an aqueous filter membrane to obtain the filtrate. The solubility of the test sample in water was detected by HPLC.

[5] = High humidity (25° C., RH 75% ± 5%), the 5th day
[6] = High humidity (25° C., RH 75% ± 5%), the 10th day
[7] = High humidity (25° C., RH 75% ± 5%), the 30th day
[8] = High humidity (25° C., RH 90% ± 5%), the 5th day
[9] = High humidity (25° C., RH 90% ± 5%), the 10th day
[10] = High humidity (25° C., RH 90% ± 5%), the 30th day
[11] = High temperature (40° C.), the 5th day
[12] = High temperature (40° C.), the 10th day
[13] = High temperature (40° C.), the 30th day
[14] = High temperature (60° C.), the 5th day
[15] = High temperature (60° C.), the 10th day
[16] = High temperature (60° C.), the 30th day

## CN1CCC(=C(F)c2cccc(NC(=O)c3c(F)cc(F)cc3F)n2)CC1.CS(=O)(=O)O [Example 1]
[1]
  AUClast: 238 ng·h/mL
  Cmax: 99.9 ng/mL
  Tmax: 0.667 h
[2]
  Hygroscopic feature: no or almost no hygroscopicity
[3]; 0 day
  Appearance: white
  Purity: 99.66%
[3]; [5]
  Appearance: white
  Purity: 99.71%
[3]; [6]
  Appearance: white
  Purity: 99.74%
[3]; [7]
  Appearance: white
  Purity: 99.77%
[3]; [8]
  Appearance: white
  Purity: 99.68%
[3]; [9]
  Appearance: white
  Purity: 99.71%
[3]; [10]
  Appearance: white
  Purity: 99.72%
[3]; [11]
  Appearance: white
  Purity: 99.73%
[3]; [12]
  Appearance: white
  Purity: 99.72%
[3]; [13]
  Appearance: white
  Purity: 99.79%
[3]; [14]
  Appearance: white
  Purity: 99.72%
[3]; [15]
  Appearance: white
  Purity: 99.74%
[3]; [16]
  Appearance: white
  Purity: 99.8%
[3]; Light, the 5th day
  Appearance: white
  Purity: 99.59%
[3]; Light, the 10th day
  Appearance: white
  Purity: 99.43%
[3]; Light, the 30th day
  Appearance: white
  Purity: 97.66%
[3]; high temperature, high humidity and light, 30 days
  Changes of appearance, purity and crystal form: no obvious changes
[4]; 37° C. water, shaking for 24 h
  Concentration of compound having formula (I) in saturated aqueous solution: 300.88 mg/mL

## CN1CCC(=C(F)c2cccc(NC(=O)c3c(F)cc(F)cc3F)n2)CC1 [Compound having formula (I), 2,4,6-trifluoro-N-(6-(fluoro(1-methylpiperidin-4-ylidene)methyl)pyridin-2-yl)benzamide]
[1]; dog, plasma
  AUC(0-t): 117 ng·h/mL
[1]; dog, plasma, read-out: Cmax
  Cmax: 32.8 ng/mL
[1]; dog, plasma, read-out: Tmax
  Tmax: 3.67 h
[4]
  Water solubility (in words): poor water solubility
[4]; thermodynamic from solid, 37° C. water, shaking for 24 h, read-out: Concentration of compound having formula (I) in saturated aqueous solution
  solubility thermodynamic at 24 h: 2590 µg/mL

## CN1CCC(=C(F)c2cccc(NC(=O)c3c(F)cc(F)cc3F)n2)CC1.O=S(=O)(O)c1ccccc1 [Example 3]
[4]; 37° C. water, shaking for 24 h
  Concentration of compound having formula (I) in saturated aqueous solution: 1.89 mg/mL
